Assay: Acute Toxic characters (Mouse LD50)
Type: in vivo
Conditions: HCl salt; for Mouse LD50: female; for LD50: mouse, in vivo, male
[1] = ip, Intraperitoneal Administration
[2] = sc, Subcutaneous Administration

With `C[C@@H](O)[C@H](NC(=O)[C@@H](CCCN)NC(=O)[C@H](CC(O)CNC(=N)N)NC(=O)[C@@H](N)CCCNC(=N)N)C(=O)N[C@H](CCCN)C(=O)N[C@@H](CCCCN)C(=O)N[C@H](Cc1ccc(O)cc1)C(=O)O` (single isomer, unassigned) [L-ARG--L-ARG(OH)--D-ORN--L-THR--D-ORN--L-Lys--D-TYR] the “Mouse LD50” value (Intraperitoneal Administration) was “above 300 mg/kg”, the “Mouse LD50” value (Intravenous Administration) was 144 to 1728 mg/kg and the “Mouse LD50” value (Oral Administration) was “above 6000 mg/kg”. The “Mouse LD50” value (Subcutaneous Administration) was at least 320 mg/kg, the LD50 [1] was over 300 mg/kg and the LD50 [2] was at least 320 mg/kg. The LD50 (Intravenous Administration) was 120 to 144 mg/kg and the LD50 (Oral Administration) was over 6000 mg/kg.
With `C[C@@H](O)[C@H](NC(=O)[C@@H](CCCN)NC(=O)[C@H](CC(O)CNC(=N)N)NC(=O)[C@@H](N)CCCNC(=N)N)C(=O)N[C@H](CCCN)C(=O)N[C@@H](CC(O)CNC(=N)N)C(=O)N[C@H](Cc1ccc(O)cc1)C(=O)O` (single isomer, unassigned) [L-ARG--L-(ARG(OH)--D-ORN--L-THR--D-ORN--L-ARG(OH)--D-TYR] the “Mouse LD50” value (Intraperitoneal Administration) was 43.2 to 57.2 mg/kg, the “Mouse LD50” value (Intravenous Administration) was 24.1 to 34.8 mg/kg and the “Mouse LD50” value (Oral Administration) was 2400 to 3000 mg/kg. For the same molecule, the “Mouse LD50” value (Subcutaneous Administration) was 104 to 125 mg/kg, the LD50 [1] was 43.2 to 57.2 mg/kg and the LD50 [2] was 86.8 to 104 mg/kg. It also gave an LD50 (Intravenous Administration) of 24.1 to 34.8 mg/kg and an LD50 (Oral Administration) of 2400 to 3000 mg/kg.

Source: patent publication US4221705A, “Novel peptide type antibiotic and the process for the production thereof” (priority 1977, dated 1980)
